Test results from patent publication US6403831B1, “Substituted benzylidene indenyl formamides, acetamides and propionamides” (Cell Pathways, Inc., priority 1996, dated 2002).
Marks after values point to notes of the source that are not given here.

Key:
[1] = test system: human colon carcinoma cell line, SW-480; experiment: Growth inhibition, Sulforhodamine B (SRB) protein binding assay; format: cell-based; conditions: SW-480 cell line, six days continuous exposure
Description: These compounds were assayed for their growth inhibitory activity on the human colon carcinoma cell line, SW-480 obtained from ATCC (Rockville, Md.), to ascertain the degree of growth inhibition. Growth inhibition of this cell line is indicative of a benefit on precancerous lesions and neoplasms. The cell line and growth assay employed for these experiments are well characterized, and are used to evaluate the anti-neoplastic properties of NSAIDs. The assay is used by the United States National Cancer Institute in its screening program for new anti-cancer drugs.
Drug stock solutions were made in 100% DMSO then diluted with RPMI media for cell culture testing. All drug solutions were prepared fresh on the day of testing. The cultured cells were obtained at passage #99 and grown in RPMI media supplemented with 5% fetal calf serum, and 2 mM glutamine, 100 U/ml penicillin, 100 U/ml streptomycin, and 0.25 μg/ml amphotericin. The cultures were maintained in a humidified atmosphere of 95% air and 5% CO2 at 37° C. The cultures were passaged at preconfluent densities using a solution of 0.05% trypsin and 0.53 mM EDTA. Cells were plated at 1000 cells/well for 96 well flat-bottom microtiter plates.
Tumor cell growth inhibition was assessed using the Sulforhodamine B (SRB) protein binding assay. In this assay, tumor cells were plated in 96-well plates and treated with drug-containing media for six days (continuous exposure). For each plate, 6 wells were designated as no treatment controls, six wells as vehicle (0.1% DMSO) controls, and the remaining wells for drug dilutions with three wells per drug concentration. At the end of the exposure period, the cells were fixed and stained with sulforhodamine B, a protein binding dye. The dye was then solubilized, and the optical density of the resulting solution was determined on a 96-well plate reader. The mean dye intensity of the treated wells was then divided by the mean dye intensity in the control wells (6 wells of each) to determine the effect of the drug on the cells. Dye intensity is proportional to the number of cells or amount of protein per well. The resultant “percent inhibition” value then represents the degree of growth inhibition caused by the drug.
For each experiment, an IC50 value was determined and used for comparative purposes. This value is equivalent to the concentration of drug needed to inhibit tumor cell growth by 50%. IC50 values were obtained graphically by connecting the mean values for each drug concentration tested. Each experiment included at least three wells per drug concentration. Concentration was plotted on a log scale on the X-axis.

COX I = target: T1, COX I (Ovis aries, UniProt P05979); experiment: Cyclooxygenase (COX) inhibition, purified COX; format: biochemical; conditions: values marked *: 1000 μM test compound; purified COX from ram seminal vesicles
T1 construct: The COX was purified form ram seminal vesicles; from tissue; host or cells: ram seminal vesicles
T1 sequence (P05979 25-600): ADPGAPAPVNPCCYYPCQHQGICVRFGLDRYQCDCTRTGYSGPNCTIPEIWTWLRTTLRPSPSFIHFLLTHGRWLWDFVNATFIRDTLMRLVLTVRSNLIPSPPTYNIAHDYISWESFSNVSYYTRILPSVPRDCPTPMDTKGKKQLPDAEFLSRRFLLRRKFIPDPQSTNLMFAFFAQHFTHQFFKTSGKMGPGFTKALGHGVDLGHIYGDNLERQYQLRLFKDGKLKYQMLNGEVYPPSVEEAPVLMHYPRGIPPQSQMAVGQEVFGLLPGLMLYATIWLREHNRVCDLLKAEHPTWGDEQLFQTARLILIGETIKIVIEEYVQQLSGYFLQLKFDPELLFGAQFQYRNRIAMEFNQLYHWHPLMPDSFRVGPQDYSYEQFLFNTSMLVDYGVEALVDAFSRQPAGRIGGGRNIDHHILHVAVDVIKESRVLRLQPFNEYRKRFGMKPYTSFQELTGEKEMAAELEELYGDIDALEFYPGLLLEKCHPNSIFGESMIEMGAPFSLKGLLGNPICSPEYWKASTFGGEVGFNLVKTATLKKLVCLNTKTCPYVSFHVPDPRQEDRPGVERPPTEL
Description: Compounds of this invention, as well as a positive control, sulindac sulfide were to determine whether they inhibited the production of cyclooxygenase (see Table 5 below).
COX catalyzes the formation of prostaglandins and thromboxane by the oxidative metabolism of arachidonic acid. The compounds of this invention were evaluated for inhibitory effects on purified COX. The COX was purified form ram seminal vesicles, as described by Boopathy, R. and Balasubramanian, J. 239:371-377, 1988. COX activity was assayed as described by Evans, A. T., et al., “Actions of cannabis constituents on enzymes of arachidonate metabolism anti-flammatory potential,” Biochem. Pharmacol., 36:2035-2037, 1987. Briefly, purified COX was incubated with arachidonic acid (100 μM) for 2.0 min at 37° C. in the presence or absence of test compounds. The assay was terminated buy the addition of TCA, and COX activity was determined by absorbance at 530 nm.

[2] = test system: HT-29 human colon carcinoma cells; experiment: Apoptosis by morphology (acridine orange/ethidium bromide, condensed chromatin); format: cell-based; conditions: HT-29 cells
Description: Apoptosis was measured using an assay of cell death based on morphological characteristics of apoptotic cells (i.e., condensed chromatin). Drug preparation and cell culture conditions were the same as for the SRB assay described above, except that HT-29 human colon carcinoma cells were employed/Confluent cultures were established in 12.5 cm^2 flasks by plating 0.5×10^6 cells/flask. The cultures were assayed for apoptosis by fluorescent microscopy following labeling with acridine orange and ethidium bromide. Floating and attached cells were collected by trypsinization and washed three times in PBS. One ml aliquots were centrifuged (3 g). The pellet was resuspended in 25 μl media and 1 μl of a dye mixture containing 100 μg/ml acridine orange and 100 μg/ml ethidium bromide prepared in PBS and mixed gently. Ten μl of mixture was placed on a microscope slide and covered with a 22 mm^2 coverslip and examined under 40×dry objectives using epillumination and filter combination.
An observer blinded to the identity of the treatments scored at least 100 cells per sample. Apoptotic cells were identified by nuclear condensation of chromatin stained by the acridine orange or ethidium bromide.

[3] = test system: SW-480 colon adenocarcinoma cells; experiment: Apoptosis by DNA fragmentation (Cell Death Detection ELISA plus); format: cell-based, human; conditions: SW-480 cells, 48 hrs; for EC50: by software or estimated from effective concentration range; for DNA Fragmentation FS (100 μM): fold stimulation FS=ODmax/ODveh
Description: Apoptosis was also measured based on the amount of fragmented DNA contained in cell lysates. Briefly, SW-480 colon adenocarcinoma cells were plated in 96-well microtitre plates (“MTP”) at a density of 10K cells/well in 180 μl and incubated for 24 hrs. Cells were then treated with 20 μl aliquots of appropriately diluted compound, and allowed to incubate for an additional 48 hrs.
After the incubation, samples were prepared according to the following steps. The MTP was centrifuged (15 min., 1000 rpm) and the supernatant was carefully removed by fast inversion of the MTP. The cell pellents in each well were then resuspended in ^200 μl lysis buffer and incubated for 45 min. at room temperature to lyse the cells. The lysates were then centrifuged (15 min., 1000 rpm) and 20 μl aliquots of the supernatant (=cytoplasmic fraction) were transferred into the streptavidin coated MTP for analysis. Care was taken not to shake the lysed pellets in the MTP (=cell nucleii containing high molecular weight, unfragmented DNA). Samples were analyzed immediately, because storage at 4 C or −20 C reduces the ELISA-signals.
Samples were then processed according to a DNA fragmentation assay protocol, and dose-response curves were generated based on optical density readings. Quantification of DNA was done by a commercially available photometric enzyme-immunoassay manufactured by Mannheim-Boehringer under the name “Cell Death Detection ELISA^plus”. The assay is based on a quantitative sandwich-enzyme-immunoassay-principle using mouse monoclonal antibodies directed against DNA and histones, respectively. This allows the specific determination of mono and oligonucleosomes in the cytoplasmatic fraction of cell lysates. In brief, the assay procedure is as follows. The sample (cell-lysate, serum, culture-supernatant etc.) is placed into a streptavidin-coated MTP. Subsequently, a mixture of anti-histone-biotin and anti-DNA-POD are added and incubated for 2 hours. During the incubation period, the anti-histone antibody binds to the histone-component of the nucleosomes and simultaneously fixes the immunocomplex to the streptavidin-coated MTP via its biotinylation. Additionally, the anti-DNA-POD antibody reacts with the DNA component of the nucleosomes. After removal of unbound antibodies by a washing step, the amount of nucleosomes is quantified by the POD retained in the immunocomplex. POD is determined photometrically with ABTS® (2,2′-Azino-di[3-ethylbenzthiazolin-sulfonat])* as substrate.
Fold stimulation (FS=ODmax/ODveh), an indicator of apoptotic response, was determined for each compound tested. EC50 values were determined either specifically by data analysis software, or by estimates based on the effective concentration range of each compound (ECR=min. effective dose-min. dose to peak effect). These FS and EC50 values for the tested compounds are listed above in Table 6.

IC50 [1]	COX I % Inhibition (values marked *) (COX I)	SMILES	Morphology % Apoptotic Cells (1 μM) [2]	EC50 [3]	DNA Fragmentation FS (100 μM) [3]
2.2 µM	58* %	COc1cc(/C=C2/C(C)=C(CC(=O)NCc3ccccc3F)c3cc(F)ccc32)cc(OC)c1OC [Example 32, (Z)-5-fluoro-2-methyl-1-(3,4,5-trimethoxybenzylidene)-3-(N-2-fluorobenzyl)-indenylacetamide]	55%	0.32 µM	2.5
1.8 µM	49* %	COc1cc(/C=C2/C(C)=C(CC(=O)NCc3ccccc3Br)c3cc(F)ccc32)cc(OC)c1OC [Example 33, (Z)-5-fluoro-2-methyl-1-(3,4,5-trimethoxybenzylidene)-3-(N-2-bromobenzyl)-indenylacetamide]	28%	4 µM	3.7
6.2 µM	31* %	COc1cc(/C=C2/C(C)=C(CC(=O)NCc3ccccc3N)c3cc(F)ccc32)cc(OC)c1OC [Example 34, (Z)-5-fluoro-2-methyl-1-(3,4,5-trimethoxybenzylidene)-3-(N-2-aminobenzyl)-indenylacetamide]	45%	> 10 µM	2.1
> 10 µM	59* %	COc1cc(/C=C2/C(C)=C(CC(=O)NCCc3ccccc3)c3cc(F)ccc32)cc(OC)c1OC [Example 39, (Z)-5-fluoro-2-methyl-1-(3,4,5-trimethoxybenzylidene)-3-(N-2-phenylethyl)-indenylacetamide]	31%	> 10 µM	2

Continued, compound first:

SMILES	IC50 [1]	COX I % Inhibition (values marked *) (COX I)	Morphology % Apoptotic Cells (1 μM) [2]	EC50 [3]	DNA Fragmentation FS (100 μM) [3]
COc1ccc(CN(C(=O)CC2=C(C)/C(=C/c3cc(OC)c(OC)c(OC)c3)c3ccc(F)cc32)c2ccccn2)cc1 [Example 35, (Z)-5-fluoro-2-methyl-1-(3,4,5-trimethoxybenzylidene)-3-(N-4-methoxybenzyl-N-(2-pyridinyl))-indenylacetamide]	> 10 µM	37* %	40%	> 10 µM	<2
COc1cc(/C=C2/C(C)=C(CC(=O)N(CCN(C)C)Cc3ccccc3)c3cc(F)ccc32)cc(OC)c1OC [Example 36, (Z)-5-fluoro-2-methyl-1-(3,4,5-trimethoxybenzylidene)-3-(N-benzyl-N-2-dimethylaminoethyl)-indenylacetamide]	3 µM	72* %	22%	0.01 µM	5.3
COc1cc(/C=C2/C(C)=C(CC(=O)N(CCC#N)Cc3ccccc3)c3cc(F)ccc32)cc(OC)c1OC [Example 37, (Z)-5-fluoro-2-methyl-1-(3,4,5-trimethoxybenzylidene)-3-(N-benzyl-N-(2-cyanoethyl))-indenylacetamide]	> 10 µM	38* %	<20%	> 10 µM	2.5
COc1cc(/C=C2/C(C)=C(CC(=O)N(Cc3ccccc3)c3ccccn3)c3cc(F)ccc32)cc(OC)c1OC [Example 38, (Z)-5-fluoro-2-methyl-1-(3,4,5-trimethoxybenzylidene)-3-(N-benzyl-N-(2-pyridinyl))-indenylacetamide]	> 10 µM	35* %	20%	> 10 µM	<2
COc1cc(/C=C2/C(C)=C(CC(=O)NCCCc3ccccc3)c3cc(F)ccc32)cc(OC)c1OC [Example 40, (Z)-5-fluoro-2-methyl-1-(3,4,5-trimethoxybenzylidene)-3-(N-3-phenylpropyl)-indenylacetamide]	> 10 µM	34* %	<20%	> 10 µM	<2
